Drawing on article PMC5340791, “New approaches for the reliable in vitro assessment of binding affinity based on high-resolution real-time data acquisition of radioligand-receptor binding kinetics” (EJNMMI Research, 2017), this text covers Ki, chromatographic logD and Kd for nine molecules.

The target of data set [1] is T1, human adenosine A3 receptor (CHO-K1-hA3R cells) (Homo sapiens, UniProt P0DMS8).
T1 construct: expressed in transfected cells
T1 sequence (P0DMS8 1-318): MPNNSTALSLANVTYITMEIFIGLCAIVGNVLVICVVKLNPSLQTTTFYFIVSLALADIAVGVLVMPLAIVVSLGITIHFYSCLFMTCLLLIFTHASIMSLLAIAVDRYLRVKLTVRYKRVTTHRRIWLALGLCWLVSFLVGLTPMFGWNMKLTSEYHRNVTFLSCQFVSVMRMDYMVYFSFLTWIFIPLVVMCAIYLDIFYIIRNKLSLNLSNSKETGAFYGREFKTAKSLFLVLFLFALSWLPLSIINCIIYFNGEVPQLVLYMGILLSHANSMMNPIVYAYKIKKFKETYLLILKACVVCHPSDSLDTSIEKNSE
As to the kind of experiment: Competitive real-time cell-binding studies (LigandTracer), displacement of [125I]-AB-MECA. As to conditions: 0.7 nM [125I]-AB-MECA, ambient temperature, Cheng-Prusoff, mean ± SEM, three independent experiments. The method, then:
The measurements were made according to the assay protocol as previously described above. […] The experiments were initiated with a baseline measurement (10–15 min). […] Inhibition of the radioligand was performed by adding different concentration series (1–500 nM) of unlabelled compounds (A3R antagonists) each after visual binding equilibrium. At least four different concentrations of competitor, spanning three orders of magnitude adjusted appropriately for the IC50 of each compound, were used. Unspecific binding was determined in the presence of a high concentration (0.5–100 μM) of the non-labelled competitor substance. The observed association phase of the radioligand and the dissociation phase of each consecutive concentration of the competitor substance were monitored in real-time until visual binding equilibrium was reached. All non-labelled compounds were initially dissolved in DMSO and diluted with deionized water to the final concentration, where the amount of DMSO never exceeded 5%. Cytophysiological conditions and cell attachment were examined continuously during the whole course of the experiment with the perimeter trace of the LigandTracer® software (version 1.0.1).
Raw data from the LigandTracer® measurements were analysed in GraphPad Prism 6.0 (GraphPad Software, Inc., San Diego, CA). Experiments were conducted at least as a triplicate with different batches of radioligand and biological target material to avoid systematic bias and to assure statistical certainty. […] Transformed data was analysed using “one-phase association” curve fitting algorithm as outlined in the following equation:2 Y=Y0+Plateau−Y0*1−e^−k*x where “x” is a given time and “Y” corresponds to the amount of radioligand binding for a dedicated time point. “Y 0” is the initial value of “Y” at the beginning of radioligand incubation and “plateau” indicates the maximum amount of the bound radioligand after equilibrium. “k” is the rate constant expressed in reciprocal units of “x”.
Transformed data were analysed by using “dissociation—one-phase exponential decay” curve fit as follows:3 Y=Y0−NS*e^−k*x+NS where “x” is a given time and “Y” corresponds to the amount of bound radioligand for a dedicated time point. “Y 0” is the initial value of “Y” at the beginning of each dissociation phase and “NS” indicates the steady state of radioligand binding in the presence of dedicated cold competitor after infinite time. “k” is the rate constant expressed in reciprocal units of “x”.
Equilibrium binding data determined in Eqs. (2) and (3) served as input parameters for the calculation of the IC50 using “log(inhibitor) vs. response—variable slope (four parameters)” nonlinear regression algorithm as described below:4 Y=Bottom+Top−Bottom/1+10^logIC50−C*HillSlope where “C” is the logarithm of the competitor concentration and “Y” reflects the dedicated amount of bound radioligand at equilibrium obtained from Eq. (3). “Top” indicates the maximum amount of radioligand binding (without any competitor) whereas the corresponding value is derived from Eq. (2). “Bottom” expresses the amount of unspecific radioligand binding in presence of a very high concentration of competitor. The dedicated value is determined by Eq. (3) and corresponds to the “NS” value of the last inhibitor concentration. The “HillSlope” reflects the slope factor, which indicates the steepness of the resulting inhibition curve. […] The resulting IC50 was converted into the K i using Cheng-Prusoff Eq. (3).
In general terms: In a radioligand displacement assay an active substance lowers the binding of a labelled ligand.

Data set [2] can be described thus: HPLC-based measurement of the logarithm of the octanol-water partition coefficient (HPLClogD7.4). The format is physicochemical. The conditions noted are these: pH 7.4, HPLC-based assay; mean ± SEM of three independent experiments. The protocol: The logarithm of the octanol-water partition coefficient of the A3R antagonists were determined at pH 7.4 by high-performance liquid chromatography (HPLC)-based assay (HPLClogD^7.4) modified from Donovan and Pescatore. Briefly, a mixture of two internal standards (toluene and triphenylene) with known logD values and defined retention times (k’) have been used. A3R antagonists were dissolved in methanol and injected onto a short polymeric ODP-50 column (20 × 4.0 mm, 5 μm pore size, Supelco, Bellefonte, PA, USA). A linear gradient from 10% methanol/90% phosphate buffer (25 mM, pH 7.4) to 100% methanol within 9.4 min at a flow rate of 1.5 mL/min were applied. Measurement and detection of the three retention times of toluene, triphenylene and A3R antagonists were performed at 260 and 285 nm. Between consecutive HPLC runs, 5 min for re-equilibration of the HPLC column were allowed. The logD values of the dedicated compounds were determined using the known logD values of triphenylene and toluene and the retention time of triphenylene, toluene and the unknown compounds according to the following formula:1 logPUnknown=logPtol−logPtriph*tUnknown+ttol*logPtriph−ttriph*logPtol/ttol−ttriph where “log P Unknown” is the logD value of the test compound and “t Unknown” the corresponding measured retention time of the dedicated substance. The logD values for the internal standards are abbreviated as “log P tol” (toluene) and “log P triph” (triphenylene), respectively. Measured retention times are indicated as “t tol” for toluene and “t triph” for triphenylene.

The target of data set [3] is human A3R. On the set-up: method as in PMID 11462807, PMID 8190112, PMID 8576921. The conditions noted are these: traditional binding assays, membranes from human A3R-transfected HEK-293 cells; ref [30], [32], [33]; read-out: Ki Literature; cited from earlier work.
The target of data set [4] is human A3R. The conditions noted are these: traditional saturation binding assays, membranes from human A3R-transfected HEK-293 cells; ref [29]; read-out: K d (Reported affinity); cited from earlier work.

As to `CCc1nc(-c2ccccc2)c(C(=O)OCCF)c(CC)c1C(=O)SCCF` [(FE)^2@SUPPY, 2-fluoroethyl 4,6-diethyl-5-{[(2-fluoroethyl)sulfanyl]carbonyl}-2-phenylpyridine-3-carboxylate], the inhibition constant (Ki) in data set [1] came out at 8.05 ± 1.77 nM. The molecule further yielded a chromatographic logD in data set [2] of 3.95 ± 0.38.

Turning to `CCc1nc(-c2ccccc2)c(C(=O)OC)c(CC)c1C(=O)SC` [(Me)^2@SUPPY, methyl 4,6-diethyl-5-[(methylsulfanyl)carbonyl]-2-phenylpyridine-3-carboxylate], in data set [1], the Ki is 46.1 ± 6.66 nM. This molecule had a chromatographic logD in data set [2] of 3.66 ± 0.33.

In data set [1], `CCSC(=O)c1c(CC)nc(-c2ccccc2)c(C(=O)O)c1CC` [DFE@SUPPY, 4,6-diethyl-5-[(ethylsulfanyl)carbonyl]-2-phenylpyridine-3-carboxylic acid] showed a Ki of 114 ± 16.9 nM. Besides, the chromatographic logD in data set [2] stood at 0.97 ± 0.37.

On to `CCSC(=O)c1c(CC)nc(-c2ccccc2)c(C(=O)OCCF)c1CC` [FE@SUPPY, 5-(2-fluoroethyl)2,4-diethyl-3-(ethylsulfanylcarbonyl)-6-phenylpyridine-5-carboxylate], for which, in data set [1], affinity was put at a Ki of 8.51 ± 1.46 nM. Also, the chromatographic logD in data set [2] is 4.04 ± 0.36.

`CCOC(=O)c1c(-c2ccccc2)nc(CC)c(C(=O)SCCF)c1CC` [FE@SUPPY:2, 5-ethyl 2,4-diethyl-3-((2-fluoroethyl)sulfanylcarbonyl)-6-phenylpyridine-5-carboxylate] returned a Ki in data set [1] of 8.24 ± 2.35 nM. The same molecule gave a chromatographic logD in data set [2] of 4.05 ± 0.36.

Turning to `CCc1nc(-c2ccccc2)c(C(=O)OC)c(CC)c1C(=O)SCCF` [FEMe@SUPPY:2, methyl 4,6-diethyl-5-{[(2-fluoroethyl)sulfanyl]carbonyl}-2-phenylpyridine-3-carboxylate], the Ki in data set [1] came to 41.2 ± 3.91 nM. In data set [2], this molecule showed a chromatographic logD of 3.83 ± 0.36.

As for `CCOC(=O)C1=C(C)NC(c2ccccc2)=C(C(=O)OCc2ccccc2)C1C#Cc1ccccc1` (centres unmarked) [MRS1191, 1,4-dihydro-2-methyl-6-phenyl-4-(phenylethynyl)-3,5-pyridinedicarboxylic acid, 3-ethyl 5-(phenylmethyl) ester, reference compound], the chromatographic logD in data set [2] was found to be 4.83 ± 0.01.

On to `CCCOC(=O)c1c(-c2ccccc2)nc(CC)c(C(=O)SCC)c1CCC` [MRS1523, 2,3-ethyl-4,5-dipropyl-6-phenylpyridine-3-thiocarboxylate-5-carboxylate, reference compound], for which the Ki in data set [1] was 17.8 ± 2.88 nM; on human A3R [3] it was 18.9 ± 4.1 nM. For the same molecule, the chromatographic logD in data set [2] came to 4.85 ± 0.01.

Turning to `CNC(=O)[C@H]1O[C@@H](n2cnc3c(NCc4ccc(N)c(I)c4)ncnc32)[C@H](O)[C@@H]1O` [[^125I]-AB-MECA, [^125I]-4-aminobenzyl-5′-N-methylcarboxamideoadenosine], the Kd on human A3R [4] was 0.59 ± 0.02 nM.

In general, Ki refers to the equilibrium dissociation constant of an inhibitor or competing ligand from its target. Usually chromatographic logD stands for lipophilicity estimated from chromatographic retention. Read a high chromatographic logD as higher lipophilicity.
